According to ChEMBL document CHEMBL3769368, “Semi-synthesis and anti-tumor evaluation of novel 25-hydroxyprotopanaxadiol derivatives as apoptosis inducing agents” (Medchemcomm, 2015):

How the values were obtained:
[1] = Antiproliferative activity against human BGC823 cells after 48 hrs by MTT assay; assay type: functional, cell-based; conditions: BGC-823, 48 h
[2] = Antiproliferative activity against human alpha-2 cells after 48 hrs by MTT assay; assay type: functional, cell-based
[3] = Antiproliferative activity against human DU145 cells after 48 hrs by MTT assay; assay type: functional, cell-based; conditions: DU-145, 48 h
[4] = Cytotoxicity against human IOSE-144 cells after 48 hrs by MTT assay; assay type: cell-based; conditions: IOSE-144, 48 h
[5] = Antiproliferative activity against human PC3 cells after 48 hrs by MTT assay; assay type: functional, cell-based; conditions: PC-3, 48 h
MDA-MB-231 = experiment: Antiproliferative activity against human MDA-MB-231 cells after 48 hrs by MTT assay; assay type: functional, cell-based; conditions: MDA-MB-231, 48 h

SMILES	IC50 [1]	IC50 [2]	IC50 [3]	IC50 [4]	IC50 [5]	IC50 (MDA-MB-231)
CC[C@H](C)[C@H](NC(=O)OC(C)(C)C)C(=O)O[C@@H]1C[C@@H]2[C@@]3(C)CC[C@H](O)C(C)(C)[C@@H]3CC[C@@]2(C)[C@]2(C)CC[C@H]([C@](C)(O)CCCC(C)(C)O)[C@@H]12	> 100 µM	81 µM	> 100 µM	> 100 µM	> 100 µM	> 100 µM
CC(C)(O)CCC[C@@](C)(O)[C@H]1CC[C@]2(C)[C@@H]1[C@H](O)C[C@@H]1[C@@]3(C)CC[C@H](OC(=O)[C@@H](N)Cc4cnc[nH]4)C(C)(C)[C@@H]3CC[C@]12C	12 µM	11 µM	9.6 µM	> 100 µM	10 µM	5.3 µM
CC(C)(O)CCC[C@@](C)(O)[C@H]1CC[C@]2(C)[C@@H]1[C@H](O)C[C@@H]1[C@@]3(C)CC[C@H](OC(=O)[C@H](Cc4ccc(O)cc4)NC(=O)OC(C)(C)C)C(C)(C)[C@@H]3CC[C@]12C	37 µM	33 µM	34 µM	> 100 µM	25 µM	19 µM
CC(C)(O)CCC[C@@](C)(O)[C@H]1CC[C@]2(C)[C@@H]1[C@H](OC(=O)[C@H](CCC(=O)OCc1ccccc1)NC(=O)OC(C)(C)C)C[C@@H]1[C@@]3(C)CC[C@H](O)C(C)(C)[C@@H]3CC[C@]12C	> 100 µM	85 µM	> 100 µM	> 100 µM	> 100 µM	79 µM
CC(C)(O)CCC[C@@](C)(O)[C@H]1CC[C@]2(C)[C@@H]1[C@H](O)C[C@@H]1[C@@]3(C)CC[C@H](OC(=O)[C@H](CCC(=O)OCc4ccccc4)NC(=O)OC(C)(C)C)C(C)(C)[C@@H]3CC[C@]12C	23 µM	28 µM	54 µM	> 100 µM	29 µM	19 µM
CC(C)(O)CCC[C@@](C)(O)[C@H]1CC[C@]2(C)[C@@H]1[C@H](O)C[C@@H]1[C@@]3(C)CC[C@H](OC(=O)[C@H](CO)NC(=O)OC(C)(C)C)C(C)(C)[C@@H]3CC[C@]12C	21 µM	24 µM	25 µM	> 100 µM	25 µM	18 µM
C[C@H](NC(=O)OC(C)(C)C)C(=O)O[C@H]1CC[C@]2(C)[C@H]3C[C@@H](OC(=O)[C@H](C)NC(=O)OC(C)(C)C)[C@@H]4[C@@H]([C@](C)(O)CCCC(C)(C)O)CC[C@@]4(C)[C@]3(C)CC[C@H]2C1(C)C	81 µM	57 µM	> 100 µM	> 100 µM	> 100 µM	80 µM
C[C@H](NC(=O)OC(C)(C)C)C(=O)O[C@H]1CC[C@]2(C)[C@H]3C[C@@H](O)[C@@H]4[C@@H]([C@](C)(O)CCCC(C)(C)O)CC[C@@]4(C)[C@]3(C)CC[C@H]2C1(C)C	18 µM	24 µM	23 µM	> 100 µM	22 µM	17 µM
CC(C)(O)CCC[C@@](C)(O)[C@H]1CC[C@]2(C)[C@@H]1[C@H](OC(=O)[C@H](Cc1cnc[nH]1)NC(=O)OC(C)(C)C)C[C@@H]1[C@@]3(C)CC[C@H](O)C(C)(C)[C@@H]3CC[C@]12C	38 µM	72 µM	> 100 µM	> 100 µM	86 µM	23 µM
CC(C)C[C@H](NC(=O)OC(C)(C)C)C(=O)O[C@H]1CC[C@]2(C)[C@H]3C[C@@H](O)[C@@H]4[C@@H]([C@](C)(O)CCCC(C)(C)O)CC[C@@]4(C)[C@]3(C)CC[C@H]2C1(C)C	24 µM	32 µM	26 µM	> 100 µM	41 µM	17 µM
CC(C)(O)CCC[C@@](C)(O)[C@H]1CC[C@]2(C)[C@@H]1[C@H](O)C[C@@H]1[C@@]3(C)CC[C@H](OC(=O)[C@H](Cc4cnc[nH]4)NC(=O)OC(C)(C)C)C(C)(C)[C@@H]3CC[C@]12C	27 µM	20 µM	21 µM	> 100 µM	28 µM	17 µM
C[C@H](N)C(=O)O[C@@H]1C[C@@H]2[C@@]3(C)CC[C@H](O)C(C)(C)[C@@H]3CC[C@@]2(C)[C@]2(C)CC[C@H]([C@](C)(O)CCCC(C)(C)O)[C@@H]12	9 µM	9.2 µM	14 µM	> 100 µM	8.8 µM	5.7 µM
C[C@H](NC(=O)OC(C)(C)C)C(=O)O[C@@H]1C[C@@H]2[C@@]3(C)CC[C@H](O)C(C)(C)[C@@H]3CC[C@@]2(C)[C@]2(C)CC[C@H]([C@](C)(O)CCCC(C)(C)O)[C@@H]12	40 µM	34 µM	> 100 µM	> 100 µM	49 µM	46 µM
CC(C)C[C@H](NC(=O)OC(C)(C)C)C(=O)O[C@@H]1C[C@@H]2[C@@]3(C)CC[C@H](O)C(C)(C)[C@@H]3CC[C@@]2(C)[C@]2(C)CC[C@H]([C@](C)(O)CCCC(C)(C)O)[C@@H]12	> 100 µM	86 µM	> 100 µM	> 100 µM	> 100 µM	> 100 µM
C[C@H](N)C(=O)O[C@H]1CC[C@]2(C)[C@H]3C[C@@H](O)[C@@H]4[C@@H]([C@](C)(O)CCCC(C)(C)O)CC[C@@]4(C)[C@]3(C)CC[C@H]2C1(C)C	7.9 µM	11 µM	8 µM	> 100 µM	7.6 µM	4.8 µM
CC(C)C[C@H](NC(=O)OC(C)(C)C)C(=O)O[C@H]1CC[C@]2(C)[C@H]3C[C@@H](OC(=O)[C@H](CC(C)C)NC(=O)OC(C)(C)C)[C@@H]4[C@@H]([C@](C)(O)CCCC(C)(C)O)CC[C@@]4(C)[C@]3(C)CC[C@H]2C1(C)C	> 100 µM	73 µM	> 100 µM	> 100 µM	> 100 µM	> 100 µM
CC(C)(O)CCC[C@@](C)(O)[C@H]1CC[C@]2(C)[C@@H]1[C@H](O)C[C@@H]1[C@@]3(C)CC[C@H](O)C(C)(C)[C@@H]3CC[C@]12C	46 µM	48 µM	53 µM	> 100 µM	57 µM	33 µM
CC[C@H](C)[C@H](N)C(=O)O[C@H]1CC[C@]2(C)[C@H]3C[C@@H](O)[C@@H]4[C@@H]([C@](C)(O)CCCC(C)(C)O)CC[C@@]4(C)[C@]3(C)CC[C@H]2C1(C)C	10 µM	17 µM	14 µM	> 100 µM	8.4 µM	6.4 µM
CC(C)C[C@H](N)C(=O)O[C@H]1CC[C@]2(C)[C@H]3C[C@@H](O)[C@@H]4[C@@H]([C@](C)(O)CCCC(C)(C)O)CC[C@@]4(C)[C@]3(C)CC[C@H]2C1(C)C	8.9 µM	16 µM	7.6 µM	> 100 µM	7.9 µM	4.8 µM
CC(C)(O)CCC[C@@](C)(O)[C@H]1CC[C@]2(C)[C@@H]1[C@H](O)C[C@@H]1[C@@]3(C)CC[C@H](OC(=O)[C@H](CCCNC(=N)N)NC(=O)OC(C)(C)C)C(C)(C)[C@@H]3CC[C@]12C	12 µM	13 µM	11 µM	> 100 µM	12 µM	8 µM
CC(C)(O)CCC[C@@](C)(O)[C@H]1CC[C@]2(C)[C@@H]1[C@H](OC(=O)[C@H](Cc1ccc(O)cc1)NC(=O)OC(C)(C)C)C[C@@H]1[C@@]3(C)CC[C@H](O)C(C)(C)[C@@H]3CC[C@]12C	90 µM	84 µM	> 100 µM	> 100 µM	63 µM	29 µM
O=c1[nH]cc(F)c(=O)[nH]1 [FLUOROURACIL]	37 µM	33 µM	38 µM	29 µM	46 µM	20 µM
C[C@@H](O)[C@H](NC(=O)OC(C)(C)C)C(=O)O[C@H]1CC[C@]2(C)[C@H]3C[C@@H](O)[C@@H]4[C@@H]([C@](C)(O)CCCC(C)(C)O)CC[C@@]4(C)[C@]3(C)CC[C@H]2C1(C)C	22 µM	24 µM	25 µM	> 100 µM	28 µM	14 µM
CC(C)(O)CCC[C@@](C)(O)[C@H]1CC[C@]2(C)[C@@H]1[C@H](OC(=O)[C@H](CCC(=O)OCc1ccccc1)NC(=O)OC(C)(C)C)C[C@@H]1[C@@]3(C)CC[C@H](OC(=O)[C@H](CCC(=O)OCc4ccccc4)NC(=O)OC(C)(C)C)C(C)(C)[C@@H]3CC[C@]12C	> 100 µM	61 µM	> 100 µM	> 100 µM	> 100 µM	89 µM
CC[C@H](C)[C@H](NC(=O)OC(C)(C)C)C(=O)O[C@H]1CC[C@]2(C)[C@H]3C[C@@H](O)[C@@H]4[C@@H]([C@](C)(O)CCCC(C)(C)O)CC[C@@]4(C)[C@]3(C)CC[C@H]2C1(C)C	22 µM	36 µM	58 µM	> 100 µM	24 µM	18 µM
CC[C@H](C)[C@H](NC(=O)OC(C)(C)C)C(=O)O[C@H]1CC[C@]2(C)[C@H]3C[C@@H](OC(=O)[C@@H](NC(=O)OC(C)(C)C)[C@@H](C)CC)[C@@H]4[C@@H]([C@](C)(O)CCCC(C)(C)O)CC[C@@]4(C)[C@]3(C)CC[C@H]2C1(C)C	> 100 µM	69 µM	> 100 µM	> 100 µM	> 100 µM	> 100 µM
